The nature of assay [1]: FKBP/FRB model system, FP labelling kinetics with or without rapamycin. Format: biochemical. To be noted: in combination with a FKPB/FRB sensor system; versus PEP1. How it is done:
FIG. 13 Model system to test split HaloTag™ performance: Left: Scheme explaining the FKBP/FRB based model system. cpHaloΔ and the 9mer peptide are fused to FKBP and FRB, respectively, to render the split complementation and activity dependent on their rapamycin dependent interaction. Right: Labelling kinetics of the model system were followed via a fluorescence polarization assay in the presence or absence of rapamycin (Rap). Halo-TMR was used as substrate and each experiment was performed in triplicate.
FIG. 14 Impact of different flexible linkers in the FKBP/FRB model system: Labelling kinetics of split HaloTag™ fused to FKBP and FRB using different flexible linkers were observed via a fluorescence polarization assay in the presence or absence of rapamycin. Halo-TMR was used as substrate and each experiment was performed in triplicate.
The inventors further tested the performance of the split-HaloTag system of the invention for labelling protein-protein interactions in a simple model system. They used the strong interaction of the proteins FKBP and FRB, which is conditional on the presence of the small-molecule drug rapamycin. […] Different flexible linkers (1-3 times GGS) were placed between the interacting proteins (FKBP/FRP) and the split HaloTag™ fragments to assess the effect of linker length and to find well performing linker combinations (FIG. 14). […]

Assay [2] can be described thus: FP kinetic assay of calcium integrators (split integrator, CaProLa). The settings on record: in combination with the calmodulin/M13 sensor system; versus PEP1. Format: biochemical. The protocol:
FIG. 6 M13—cpHaloΔ9mer and 9mer—CaM linker length optimization: All combinations of split integrators composed of M13—(GGS)1-3—cpHaloΔ9mer and 9mer—(GGS)1-3—CaM were tested in an FP kinetic assay in the presence of calcium or EGTA.
FIG. 8 Performance of CaProLa constructs with different M13—CaM linkers: FP kinetics of different CaProLa constructs and the split integrator under four conditions: in the presence of calcium (red), in the absence of calcium (purple), in the absence of calcium but spiked with calcium after 1 h (cyan), in the presence of calcium, followed by an EGTA spike to stop the reaction, followed by a calcium spike to restart the reaction (green). Small arrows indicate the EGTA and calcium spikes. Curves in the presence of calcium (red) were fitted to a second order reaction rate equation to determine the rate constants. All experiments were performed in triplicates. GGTGGS: SEQ ID NO 027.
FIG. 11 Performance of second generation CaProLa constructs: A fluorescence polarization kinetic assays with Halo-TMR of CaProLa 2.1-2.3 were performed under four conditions: in the presence of calcium (red), in the absence of calcium (purple), in the absence of calcium but spiked with calcium after 1 h (cyan), in the presence of calcium, followed by an EGTA spike to stop the reaction, followed by a calcium spike (green). Small arrows indicate the EGTA and calcium spikes. […]

Turning to “PEP2: 10mer Peptide 145-ARETFQAFRT-154, second partial effector sequence with extra C-terminal threonine (partial sensor sequence)”, the “effect of the extra threonine on reaction speed” value is on record as “does not have much effect” in assay [1] and “significant increase in the reaction speed” in assay [2].

The values are drawn from patent publication US12371676B2, “Circularly permutated haloalkane transferase fusion molecules” (MAX-PLANCK-GESELLSCHAFT ZUR FÖRDERUNG DER WISSENSCHAFTEN E. …, priority 2019, dated 2025).
